# Laboratory results from paper PMC2194712, “Structure of Arabidopsis thaliana 5-methylthioribose kinase reveals a more occluded active site than its bacterial homolog” (BMC Structural Biology, 2007).
# T1: A. thaliana MTR kinase (Arabidopsis thaliana, UniProt Q9C6D2)
# T1 construct: gene MTK; full length, 420 residues; homodimer
# T1 sequence (Q9C6D2 1-420): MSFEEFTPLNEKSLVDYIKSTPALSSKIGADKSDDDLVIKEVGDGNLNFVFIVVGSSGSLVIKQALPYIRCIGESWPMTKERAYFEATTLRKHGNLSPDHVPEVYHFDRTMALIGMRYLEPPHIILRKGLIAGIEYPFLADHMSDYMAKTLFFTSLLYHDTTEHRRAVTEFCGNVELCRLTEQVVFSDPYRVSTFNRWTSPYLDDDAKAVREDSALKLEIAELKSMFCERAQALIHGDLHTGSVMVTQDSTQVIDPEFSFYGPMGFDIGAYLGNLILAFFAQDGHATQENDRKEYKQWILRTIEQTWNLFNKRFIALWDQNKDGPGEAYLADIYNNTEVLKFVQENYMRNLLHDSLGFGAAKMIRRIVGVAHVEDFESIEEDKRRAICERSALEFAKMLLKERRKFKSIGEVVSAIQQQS
# B1: Arabidopsis thaliana 5-methylthioribose kinase (enzyme, UniProt Q9C6D2 1-420, looked up)
# chain: T1 sequence (Q9C6D2 1-420)
# notes: 5-methylthioribose (MTR) kinase of Arabidopsis thaliana, 420 residues; residues 1 and 420 are named as part of the crystallised protein (not modelled); also called A. thaliana MTR kinase; MTR kinase
# Tests used:
# [1] = molecular target: T1, A. thaliana MTR kinase; assay: X-ray crystallography, […] Å, co-crystallization; assay type: binding; conditions: crystal soaked at pH 6.5
# [2] = molecular target: the molecule itself; assay: SEC; size exclusion chromatography of A. thaliana MTR kinase, data not shown; conditions not given
molecule,measurement,setting,value
Nc1ncnc2c1ncn2[C@@H]1O[C@H](COP(=O)(O)OP(=O)(O)O)[C@@H](O)[C@H]1O [ADP],"X-ray crystallography, 1.9 Å, co-crystallization","[1]; nucleotide site, from ATPγS hydrolysed during co-crystallization, two Mg(II), MTR bound",coordinates of the A. thaliana MTR kinase in complex with ADP and MTR
CSC[C@H]1OC(O)[C@H](O)[C@@H]1O (stereo partly drawn) [MTR],"X-ray crystallography, 1.9 Å, co-crystallization","[1]; active site, co-crystallized with ATPγS and MTR, Mg(II) and ADP bound, alpha anomer",coordinates of the A. thaliana MTR kinase in complex with ADP and MTR
B1,stoichiometry N,[2],2
